Assays:
HCT116 MTAP null cells = assay: HCT116 MTAP null cell line proliferation / cell viability (CellTiter-Glo, 6 days); assay type: cell-based; conditions: 144 h; HCT116 MTAP null cells, 6 days treatment, CellTiter-Glo cell viability; read-out: HCT-116 MTAP null IC50
Procedure, shortened: (§1)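 Isogenic HCT116 parent and MTAP-knockout cells in RPMI 1640 + 10% FBS, plated overnight, then exposed to compound for 6 days (37 °C, 5% CO2). Viability by CellTiter-Glo luminescence. Dilutions: 8–9 points from 1 or 10 μM (1:3), or 22 points from 10 or 50 μM (1:2); IC50 by 4-parameter or Hill −1 fit.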

HCT116 WT cells = assay: HCT116 WT (parent) cell line proliferation / cell viability (CellTiter-Glo, 6 days); assay type: cell-based; conditions: Homo sapiens, HCT-116, 144 h, 6 days treatment
Procedure, shortened: as §1

| Structure (SMILES) | IC50 (HCT116 MTAP null cells) [nM] | IC50 (HCT116 WT cells) [nM] |
| --- | --- | --- |
| CN(C(=O)c1cc2c3c(c(N)nc2cn1)COC3)[C@@H]1COCc2cc(C(F)(F)F)ncc21 [Example 492, 4-amino-N-methyl-N-((4S)-7-(trifluoromethyl)-3,4-dihydro-1H-pyrano[4,3-c]pyridin-4-yl)-1,3-dihydrofuro[3,4-c][1,7]naphthyridine-8-carboxamide] | 706 | 31400 |
| CN(C(=O)c1ccc2nc(N)c3cnn(C)c3c2c1)[C@@H]1COCc2cc(-c3cnn(C(F)(F)F)c3)ccc21 (single isomer, unassigned) [Example 663] | 10 | 922 |
| CN(C(=O)c1cc2c3c(c(N)nc2cc1F)COC3)C1COc2cc(Br)cnc21 (racemic) [Example 465, 4-amino-N-((3R)-6-bromo-2,3-dihydrofuro[3,2-b]pyridin-3-yl)-7-fluoro-N-methyl-1,3-dihydrofuro[3,4-c]quinoline-8-carboxamide and 4-amino-N-((3S)-6-bromo-2,3-dihydrofuro[3,2-b]pyridin-3-yl)-7-fluoro-N-methyl-1,3-dihydrofuro[3,4-c]quinoline-8-carboxamide] | 1420 | 32200 |
| CN(C(=O)c1cc2c(cc1F)nc(N)c1cnn(C)c12)[C@@H]1COCc2cc(C(F)(F)F)ncc21 [Example 292, 4-amino-7-fluoro-N,1-dimethyl-N-((4S)-7-(trifluoromethyl)-3,4-dihydro-1H-pyrano[4,3-c]pyr-idin-4-yl)-1H-pyrazolo[4,3-c]-quinoline-8-carboxamide] | 7 | 224 |
| CN(C(=O)c1cc2c(cn1)nc(N)c1cnn(C)c12)[C@@H]1CCc2nc(C(F)(F)F)ccc21 (single isomer, unassigned) [Example 371] | 27 | 1620 |
| CCN(C(=O)c1cc2c(cn1)nc(N)c1cnn(C)c12)[C@@H]1COc2cc(C(F)(F)F)ccc21 (single isomer, unassigned) [Example 372] | 10 | 114 |
| CN(C(=O)c1cc(F)c2nc(N)c3cnn(C)c3c2c1)[C@@H]1COc2cc(C(F)(F)F)ccc21 [Example 254, 4-amino-6-fluoro-N,1-dimethyl-N-((3S)-6-(trifluoromethyl)-2,3-dihydro-1-benzofuran-3-yl)-1H-pyrazolo[4,3-c]quinoline-8-carboxamide] | 308 | 20200 |
| Cc1cc2nc(N)c3cnn(C)c3c2cc1C(=O)N(C)[C@@H]1COCc2c1ccc(C(F)(F)F)c2F (single isomer, unassigned) [Example 436] | 2 | 23 |
| Cc1nc2nc(N)c3cnn(C)c3c2cc1C(=O)N(C)[C@@H]1COCc2cc(C(F)(F)F)ccc21 [Example 300, 4-amino-N,1,7-trimethyl-N-((4S)-7-(trifluoromethyl)-3,4-dihydro-1H-2-benzopyran-4-yl)-1H-pyrazolo[4,3-c][1,8]-naphthyridine-8-carboxamide] | 16 | 225 |
| CN(C(=O)c1ccc2nc(N)c3cnn(C)c3c2c1)[C@@H]1COc2cc(-c3ccncc3)ccc21 [Example 627, 4-amino-N,1-dimethyl-N-((3S)-6-(4-pyridinyl)-2,3-dihydro-1-benzofuran-3-yl)-1H-pyrazolo[4,3-c]quinoline-8-carboxamide] | 4 | 136 |
| CN(C(=O)c1cc2c(cn1)nc(N)c1ccncc12)[C@@H]1COc2cc(C(F)(F)F)ccc21 [Example 223, 5-amino-N-methyl-N-((3S)-6-(trifluoromethyl)-2,3-dihydro-1-benzofuran-3-yl)pyrido[4,3-c][1,7]naphthyridine-9-carboxamide] | 23 | 437 |
| CN(C(=O)c1cc2c(cc1F)nc(N)c1cnn(C)c12)[C@@H]1COc2cc(F)c(F)cc21 [Example 475, 4-amino-N-((3S)-5,6-difluoro-2,3-dihydro-1-benzofuran-3-yl)-7-fluoro-N,1-dimethyl-1H-pyrazolo[4,3-c]quinoline-8-carboxamide] | 8 | 199 |
| CN(C(=O)c1ccc2nc(N)c3c(c2c1)COC3)C1COc2cc(Br)ccc21 (racemic) [Example 203, 4-amino-N-((3R)-6-bromo-2,3-dihydro-1-benzofuran-3-yl)-N-methyl-1,3-dihydrofuro[3,4-c]quinoline-8-carboxamide and 4-amino-N-((3S)-6-bromo-2,3-dihydro-1-benzofuran-3-yl)-N-methyl-1,3-dihydrofuro[3,4-c]quinoline-8-carboxamide] | 93 | 4590 |
| COc1ccc2c(c1)COC[C@H]2N(C)C(=O)c1cc2c3c(c(N)nc2cn1)[C@@H](C)OC3 [Example 269, (3R)-4-amino-N-((4S)-7-methoxy-3,4-dihydro-1H-2-benzopyran-4-yl)-N,3-dimeth-yl-1,3-dihydrofuro[3,4-c][1,7]-naphthyridine-8-carboxamide] | 39 | 2930 |
| CN(C(=O)c1ccc2nc(N)c3cnn(C)c3c2c1)C1COc2ncc(C(F)(F)F)cc21 (racemic) [Example 226, 4-amino-N,1-dimethyl-N-((3R)-5-(trifluoromethyl)-2,3-dihydrofuro[2,3-b]pyridin-3-yl)-1H-pyrazolo[4,3-c]quinoline-8-carboxamide and 4-amino-N,1-dimethyl-N-((3S)-5-(trifluoromethyl)-2,3-dihydro-furo[2,3-b]pyridin-3-yl)-1H-pyrazolo[4,3-c]quinoline-8-carboxamide] | 38 | 2150 |
| CN(C(=O)c1cc2c3c(c(N)nc2cn1)COC3)[C@@H]1COc2cc(Br)ccc21 (single isomer, unassigned) [Example 345] | 91 | 5440 |

| Structure (SMILES) | IC50 (HCT116 MTAP null cells) [nM] | IC50 (HCT116 WT cells) [nM] |
| --- | --- | --- |
| CN(C(=O)c1cc2c(cc1F)nc(N)c1c2cnn1C)[C@@H]1COc2cc(OC(F)F)ccc21 (single isomer, unassigned) [Example 577] | 132 | 16100 |
| Cc1nccc2c(N)nc3ccc(C(=O)N(C)[C@@H]4COc5cc(C(F)(F)F)ccc54)cc3c12 [Example 222, 5-amino-N,1-dimethyl-N-((3S)-6-(trifluoromethyl)-2,3-dihydro-1-benzofuran-3-yl)benzo[c][2,6]-naphthyridine-9-carboxamide] | 280 | 3910 |
| CN(C(=O)c1ccc2nc(N)c3c(cnn3C)c2c1)[C@@H]1COCc2nc(C(F)(F)F)ccc21 [Example 512, 4-amino-N,3-dimethyl-N-((5S)-2-(trifluoromethyl)-5,8-dihydro-6H-pyrano[3,4-b]pyridin-5-yl)-3H-pyrazolo[3,4-c]quinoline-8-carboxamide] | 123 | 11100 |
| CN(C(=O)c1cc2c3c(c(N)nc2cn1)COC3)[C@@H]1COCc2cc(C#N)ccc21 [Example 489, 4-amino-N-((4S)-7-cyano-3,4-dihydro-1H-2-benzopyran-4-yl)-N-methyl-1,3-dihydrofuro[3,4-c][1,7]naphthyridine-8-carboxamide] | 49 | 2220 |
| CN(C(=O)c1cc2c3c(c(N)nc2cn1)COC3)[C@@H]1COc2cc(C(F)(F)F)cc(F)c21 (single isomer, unassigned) [Example 545] | 68 | 3250 |
| CN(C(=O)c1cc2c3c(c(N)nc2cn1)COC3)[C@@H]1CCOc2cc(C(F)(F)F)ccc21 (single isomer, unassigned) [Example 585] | 256 | 12600 |
| CN(C(=O)c1ccc2nc(N)c3cnn(C)c3c2c1)[C@@H]1CCOCc2nc(C(F)(F)F)ccc21 (single isomer, unassigned) [Example 441] | 181 | 9310 |
| CN(C(=O)c1cc2c3c(c(N)nc2cc1Cl)COC3)[C@@H]1COc2cc(C(F)(F)F)ccc21 (single isomer, unassigned) [Example 560] | 12 | 594 |
| Cn1ncc2c(N)nc3ccc(C(=O)N(CC4CC4)[C@H]4COCc5nc(C(F)(F)F)ccc54)cc3c21 (single isomer, unassigned) [Example 594] | 228 | 19400 |
| Cc1cc2nc(N)c3c(cnn3C)c2cc1C(=O)N(C)[C@@H]1COCc2nc(C(F)(F)F)ccc21 [Example 520, 4-amino-N,3,7-trimethyl-N-((5S)-2-(trifluoromethyl)-5,8-dihydro-6H-pyrano[3,4-b]pyridin-5-yl)-3H-pyrazolo[3,4-c]quinoline-8-carboxamide] | 25 | 2420 |
| CN(C(=O)c1ccc2nc(N)c3cnn(C)c3c2c1)[C@@H]1COCc2cc(-c3ccc(C(F)(F)F)cc3)ccc21 (single isomer, unassigned) [Example 669] | 16 | 1000 |
| CN(C(=O)c1cc2c(cc1F)nc(N)c1cnn(C)c12)[C@@H]1CC(C)(C)Cc2nc(C(F)(F)F)ccc21 (single isomer, unassigned) [Example 434] | 223 | 11500 |
| C[C@H]1OCc2c1c(N)nc1cc(F)c(C(=O)N(C)[C@@H]3COCc4nc(C(F)(F)F)ccc43)cc21 [Example 495, (3R)-4-amino-7-fluoro-N,3-dimethyl-N-((5S)-2-(trifluoromethyl)-5,8-dihydro-6H-pyrano[3,4-b]pyridin-5-yl)-1,3-dihydrofuro[3,4-c]quinoline-8-carboxamide] | 15 | 386 |
| CN(C(=O)c1ccc2nc(N)c3c(c2c1)CSC3)[C@@H]1COc2cc(C(F)(F)F)ccc21 [Example 219, 4-amino-N-methyl-N-((3S)-6-(trifluoromethyl)-2,3-dihydro-1-benzofuran-3-yl)-1,3-dihydrothieno[3,4-c]quinoline-8-carboxamide] | 105 | 2770 |
| CN(C(=O)c1ccc2nc(N)c3cnn(C)c3c2c1)[C@@H]1COc2cc(-c3csc(C(F)(F)F)n3)ccc21 [Example 655, 4-amino-N,1-dimethyl-N-((3S)-6-(2-(trifluoromethyl)-1,3-thiazol-4-yl)-2,3-dihydro-1-benzofuran-3-yl)-1H-pyrazolo[4,3-c]quinoline-8-carboxamide] | 28 | 946 |

— US20240124442A1, “TRICYCLIC-AMIDO-BICYCLIC PRMT5 INHIBITORS” (AMGEN INC., priority 2021, published 2024)
